Data as given in patent US10239880B2, “Cyclopenta[d]pyrimidines and substituted cyclopenta[d]pyrimidines as antitubulin and microtubule targeting agents, monocyclic pyrimidines as tubulin inhibitors, and pyrrolopyrimidines as targeted antifolates and tubulin and multiple receptor tyrosine kinase inhibition and antitumor agents” (Duquesne University of the Holy Spirit, priority 2015, dated 2019).
Where a name gives a salt, the structure may show the parent alone. Read-outs that look alike come from different tables or passages of the source.

Legend:
[1] = tested on: A-10 cells; experiment: Microtubule depolymerization, cell-based phenotypic assay in A-10 cells; details: Rattus norvegicus
[2] = tested on: CAM; experiment: CAM (gi50); details: Table 3b; unit inferred
[3] = biological target: PDGFR-β (Homo sapiens, UniProt P09619); experiment: Kinase inhibition, whole-cell assay, PDGFR-β; format: cell-based
Sequence of PDGFR-β (P09619 33-1106, species assumed): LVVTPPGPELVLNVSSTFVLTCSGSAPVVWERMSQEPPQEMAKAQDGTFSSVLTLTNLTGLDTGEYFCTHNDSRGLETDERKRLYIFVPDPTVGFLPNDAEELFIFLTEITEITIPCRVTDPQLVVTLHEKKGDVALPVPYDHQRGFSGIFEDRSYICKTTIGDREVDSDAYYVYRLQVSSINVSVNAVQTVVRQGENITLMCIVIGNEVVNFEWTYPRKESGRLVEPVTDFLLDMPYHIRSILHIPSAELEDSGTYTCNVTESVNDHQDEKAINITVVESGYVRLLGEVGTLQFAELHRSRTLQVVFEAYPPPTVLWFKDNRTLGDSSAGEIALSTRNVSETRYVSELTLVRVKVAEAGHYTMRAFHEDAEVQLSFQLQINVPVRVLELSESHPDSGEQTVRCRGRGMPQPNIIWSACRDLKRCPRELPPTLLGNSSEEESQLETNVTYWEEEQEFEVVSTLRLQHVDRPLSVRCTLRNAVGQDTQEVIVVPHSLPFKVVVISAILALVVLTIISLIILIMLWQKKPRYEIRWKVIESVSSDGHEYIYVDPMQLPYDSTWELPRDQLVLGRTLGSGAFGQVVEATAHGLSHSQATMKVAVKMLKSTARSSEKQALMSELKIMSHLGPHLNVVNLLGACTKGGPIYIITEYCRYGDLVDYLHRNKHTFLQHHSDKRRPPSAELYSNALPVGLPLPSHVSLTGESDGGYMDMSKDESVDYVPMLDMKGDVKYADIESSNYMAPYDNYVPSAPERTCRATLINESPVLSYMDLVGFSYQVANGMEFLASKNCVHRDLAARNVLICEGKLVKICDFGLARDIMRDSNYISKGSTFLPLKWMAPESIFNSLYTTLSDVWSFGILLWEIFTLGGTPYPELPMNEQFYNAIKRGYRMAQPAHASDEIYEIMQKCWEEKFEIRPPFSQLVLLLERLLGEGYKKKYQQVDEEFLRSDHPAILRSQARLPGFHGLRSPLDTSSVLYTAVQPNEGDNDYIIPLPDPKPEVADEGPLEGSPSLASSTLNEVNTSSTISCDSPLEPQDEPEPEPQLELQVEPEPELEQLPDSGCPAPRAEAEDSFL

[4] = tested on: A431; experiment: A431 cytotoxicity; details: Homo sapiens
[5] = tested on: U251; experiment: U251 cytotoxicity; format: cell-based; details: Homo sapiens, U-251; Table 3b; unit inferred
[6] = biological target: VEGFR2 (Homo sapiens, UniProt P35968); experiment: Kinase inhibition, whole-cell assay, VEGFR2 (Flk-1); format: cell-based; details: Table 3b; unit inferred
Sequence of VEGFR2 (P35968 20-1356, species assumed): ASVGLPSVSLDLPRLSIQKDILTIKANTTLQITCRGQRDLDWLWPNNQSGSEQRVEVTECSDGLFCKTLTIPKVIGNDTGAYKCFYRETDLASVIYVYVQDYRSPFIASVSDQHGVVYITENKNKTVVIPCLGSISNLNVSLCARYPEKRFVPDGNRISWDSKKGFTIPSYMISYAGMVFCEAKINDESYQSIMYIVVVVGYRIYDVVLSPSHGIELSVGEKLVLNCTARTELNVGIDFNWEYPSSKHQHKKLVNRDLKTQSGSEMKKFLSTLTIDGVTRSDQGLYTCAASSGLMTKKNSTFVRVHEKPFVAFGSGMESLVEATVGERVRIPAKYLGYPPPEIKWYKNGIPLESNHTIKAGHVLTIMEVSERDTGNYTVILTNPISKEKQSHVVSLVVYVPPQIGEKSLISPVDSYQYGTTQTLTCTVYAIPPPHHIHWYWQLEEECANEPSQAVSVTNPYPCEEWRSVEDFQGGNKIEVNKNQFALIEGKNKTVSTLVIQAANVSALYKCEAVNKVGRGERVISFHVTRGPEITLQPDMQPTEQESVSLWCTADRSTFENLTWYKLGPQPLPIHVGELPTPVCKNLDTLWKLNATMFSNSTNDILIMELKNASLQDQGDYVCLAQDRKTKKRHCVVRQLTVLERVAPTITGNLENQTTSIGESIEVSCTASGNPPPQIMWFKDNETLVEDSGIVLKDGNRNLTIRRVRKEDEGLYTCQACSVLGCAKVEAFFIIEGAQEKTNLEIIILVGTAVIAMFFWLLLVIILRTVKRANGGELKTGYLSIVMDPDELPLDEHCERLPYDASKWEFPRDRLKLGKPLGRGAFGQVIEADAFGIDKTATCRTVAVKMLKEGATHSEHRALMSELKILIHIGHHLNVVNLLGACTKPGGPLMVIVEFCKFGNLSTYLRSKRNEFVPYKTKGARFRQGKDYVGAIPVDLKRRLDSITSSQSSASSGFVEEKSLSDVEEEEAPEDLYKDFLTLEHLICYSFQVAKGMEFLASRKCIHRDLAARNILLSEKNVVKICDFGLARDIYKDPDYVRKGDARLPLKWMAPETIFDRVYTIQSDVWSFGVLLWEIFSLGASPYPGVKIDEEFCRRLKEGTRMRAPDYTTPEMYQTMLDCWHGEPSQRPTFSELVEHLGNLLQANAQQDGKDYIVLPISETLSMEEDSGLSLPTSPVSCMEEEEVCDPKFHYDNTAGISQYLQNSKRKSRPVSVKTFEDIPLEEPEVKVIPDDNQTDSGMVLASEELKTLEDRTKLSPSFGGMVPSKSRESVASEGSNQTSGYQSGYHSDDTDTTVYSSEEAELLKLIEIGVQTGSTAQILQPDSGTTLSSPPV

[7] = tested on: MDA-MB-435 cancer cells; experiment: Antiproliferative effect in MDA-MB-435 cancer cells (SRB assay); format: cell-based; details: Homo sapiens
[8] = biological target: EGFR (Homo sapiens, UniProt P00533); experiment: Kinase inhibition, whole-cell assay, EGFR; format: cell-based
Sequence of EGFR (P00533 25-1210, species assumed): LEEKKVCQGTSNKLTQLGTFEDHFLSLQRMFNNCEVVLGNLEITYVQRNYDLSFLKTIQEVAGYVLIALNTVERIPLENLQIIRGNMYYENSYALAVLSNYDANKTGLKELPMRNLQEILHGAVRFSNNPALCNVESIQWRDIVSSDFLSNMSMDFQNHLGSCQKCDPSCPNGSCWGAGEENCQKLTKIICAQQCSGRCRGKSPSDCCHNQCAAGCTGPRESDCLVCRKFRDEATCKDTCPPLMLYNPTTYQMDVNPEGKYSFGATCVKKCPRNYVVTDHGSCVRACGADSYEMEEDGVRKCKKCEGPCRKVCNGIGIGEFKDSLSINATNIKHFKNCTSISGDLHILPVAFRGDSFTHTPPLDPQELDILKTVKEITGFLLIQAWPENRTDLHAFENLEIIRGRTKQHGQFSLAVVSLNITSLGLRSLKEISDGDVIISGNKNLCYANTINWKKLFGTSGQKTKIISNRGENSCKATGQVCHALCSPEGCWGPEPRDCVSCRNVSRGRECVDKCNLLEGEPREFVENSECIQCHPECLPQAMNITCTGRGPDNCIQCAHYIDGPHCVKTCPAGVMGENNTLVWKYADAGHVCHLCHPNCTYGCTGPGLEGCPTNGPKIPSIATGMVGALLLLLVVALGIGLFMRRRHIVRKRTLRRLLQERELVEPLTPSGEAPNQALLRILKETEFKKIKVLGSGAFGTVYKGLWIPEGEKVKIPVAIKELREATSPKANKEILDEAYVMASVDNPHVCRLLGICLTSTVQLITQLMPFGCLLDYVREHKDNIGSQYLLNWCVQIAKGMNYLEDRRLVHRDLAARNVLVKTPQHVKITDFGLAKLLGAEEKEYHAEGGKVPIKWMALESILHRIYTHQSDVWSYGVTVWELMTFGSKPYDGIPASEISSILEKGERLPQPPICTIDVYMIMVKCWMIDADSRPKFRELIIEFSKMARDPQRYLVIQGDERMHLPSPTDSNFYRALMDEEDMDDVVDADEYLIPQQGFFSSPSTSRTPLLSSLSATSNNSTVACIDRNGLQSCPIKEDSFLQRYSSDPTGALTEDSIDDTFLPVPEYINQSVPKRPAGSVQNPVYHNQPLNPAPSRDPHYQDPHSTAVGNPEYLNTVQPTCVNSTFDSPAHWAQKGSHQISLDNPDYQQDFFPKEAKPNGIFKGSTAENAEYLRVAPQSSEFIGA

[9] = tested on: RT16 (FRα); experiment: Proliferation inhibition, FRα-expressing RT16 cells; format: cell-based, Chinese hamster
Excerpt: (§1) AGF215, AGF234 and AGF263 were compared to AGF23 as inhibitors of proliferation of engineered Chinese hamster ovary (CHO) cells expressing human PCFT (R2/PCFT4), FRα (RT16), or RFC (PC43-10).

[10] = tested on: KB (RFC/FRα/PCFT); experiment: Growth inhibition of KB tumor cells; format: cell-based, human
Procedure: Cell proliferation was assayed with CellTiter-Blue™ with a fluorescent plate reader.

[11] = tested on: PC43-10 (RFC); experiment: Proliferation inhibition, RFC-expressing PC43-10 cells; format: cell-based, Chinese hamster; details: Table 11
Excerpt: as §1

[12] = tested on: D4 (FRβ); experiment: Proliferation inhibition, FRβ-expressing D4 cells; format: cell-based
[13] = Metabolite identification of 3 with human liver microsomes by LC/MS/MS; format: in vitro ADME
Excerpt: Compound 3 (Table 4), the para-methylthiophenyl substituted cyclopenta[d]pyrimidne, was designed to decrease the possible demethylation. […] Thus, the methylsulfinyl analog 4 (Table 4) and the methylsulfonyl analog 5 (Table 4) were also synthesized to determine their antiproliferative potencies. […] The electron donating, para-methylamino moiety of 8 (Table 1) and the para-dimethylamino moiety of 9 (Table 4) were designed as isosteric replacements of the O-methoxy moiety. According to the literature,^7 8 should be the major metabolite of 9. […] Compound 13 (Table 4), replaced the phenyl ring with a cyclohexyl ring to determine the importance of π-stacking interaction of the aniline ring. The variations proposed of compounds 10-13 would also serve as structural means to decrease the O-demethylation. […] Similarly, 9 could also function as a potential long acting agent, since the metabolites of both 3 and 9 are anticipated to be potent compounds against tumor cells. Section II Compounds Chemistry:
FIG. 7a) HPLC spectra of 3 incubated with human liver microsomes at 0 and 60 min. Metabolites M1-M5 and parent 3 were illustrated on the spectra. FIG. 7b) MS and MS/MS spectrum of 3. FIG. 7c) MS and MS/MS spectrum of M1 (compound 5). FIG. 7d) MS and MS/MS spectrum of M2 (compound 4). FIG. 7e) Fragmentation of M1 and M2 (MS/MS 239.1340).

[14] = tested on: Pgp expressing SK-OV-3 MDR1-6-6; experiment: Antiproliferative activity, Pgp expressing SK-OV-3 MDR1-6-6; format: cell-based; details: Homo sapiens, SK-OV-3; Table 6; read-out: IC50 ± SD Pgp expressing SK-OV-3 MDR1-6-6
[15] = tested on: Parental OVCAR-8; experiment: Antiproliferative effect, parental OVCAR-8 (SRB assay); format: cell-based; details: Homo sapiens, Table 10, n = 3, read-out: IC50 ± SD Parental OVCAR-8
[16] = tested on: Parental HeLa; experiment: Antiproliferative activity, parental HeLa; format: cell-based; details: Homo sapiens, Table 7, read-out: IC50 ± SD Parental HeLa
Excerpt: (§2) Another clinically relevant drug resistance mechanism of tubulin-targeting agents is the overexpression of the βIII isotype of tubulin.

[17] = tested on: Parental SK-OV-3; experiment: Antiproliferative activity, parental SK-OV-3; format: cell-based; details: Homo sapiens, Table 6, read-out: IC50 ± SD Parental SK-OV-3
[18] = tested on: P-gp Overexpressing NCI/ADR-RES; experiment: Antiproliferative effect, P-gp overexpressing NCI/ADR-RES (SRB assay); details: Homo sapiens, read-out: IC50 ± SD P-gp Overexpressing NCI/ADR-RES
[19] = tested on: β-III overexpressing HeLa; experiment: Antiproliferative activity, β-III overexpressing HeLa; format: cell-based; details: Homo sapiens, HeLa; Table 7; read-out: IC50 ± SD β-III overexpressing HeLa
Excerpt: as §2

[20] = tested on: MDA-MB-435 xenograft; experiment: MDA-MB-435 xenograft trial; details: IP 75 mg/kg; for adverse effects / toxicity in xenograft trial: cumulative dosing
[21] = A10, Table 3a, unit inferred, read-out: EC50 for Microtubule Depolymerization in A · 10 Cells
[22] = Table 3b, unit inferred, read-out: PDGFR kinase inhibition
[23] = A-431, read-out: A431 cytotoxicity, Table 3b, unit inferred
[24] = Table 3a, unit inferred, read-out: IC50 ± SD in MDA-435 Cells
[25] = Table 3b, unit inferred, read-out: EGFR kinase inhibition
[26] = with folic acid (+FA), read-out: IC50 FRα RT16 (+FA)
[27] = Table 11, read-out: IC50 RFC/FRα/PCFT KB
[28] = with folic acid (+FA), read-out: IC50 RFC/FRα/PCFT KB (+FA)
[29] = Table 11, read-out: IC50 FRβ D4
[30] = with folic acid (+FA), read-out: IC50 FRβ D4 (+FA)
[31] = Table 11, read-out: IC50 FRα RT16
[32] = A10, read-out: Microtubule depolymerization EC50
[33] = Table 1, IC50 ± SD, read-out: Kinase inhibition IC50 [whole-cell assays] PDGFR-β
[34] = A-431, read-out: A431 cytotoxicity, Table 1, IC50 ± SD
[35] = MDA-MB-435, read-out: MDA-MB-435 IC50
[36] = Table 1, IC50 ± SD, read-out: Kinase inhibition IC50 [whole-cell assays] EGFR

COc1ccc2c(c1)CCCN2c1nc(Cl)nc2ccn(C)c12 [Table 3a 23]
EC50 [1, 21]: 3.31 nM | GI50 [2]: 0.0076 ± 0.001 µM | IC50 [3, 22]: 0.0084 ± 0.0008 µM | IC50 [4, 23]: 0.003 ± 0.0003 µM | IC50 [5]: 0.0038 ± 0.0005 µM | IC50 [6]: 0.0152 ± 0.002 µM | IC50 [7, 24]: 4.1 ± 0.1 nM | IC50 [8, 25]: 0.009 ± 0.0009 µM

CSc1ccc(N(C)c2nc(C)nc3ccn(C)c23)cc1 [Table 3a 26]
EC50 ([1]; A10, Table 3a, lines that print nM, read-out: EC50 for Microtubule Depolymerization in A · 10 Cells): 23 nM | GI50 [2]: 0.363 ± 0.0569 µM | IC50 [3, 22]: 0.45 ± 0.0531 µM | IC50 [4, 23]: 0.0188 ± 0.0041 µM | IC50 [5]: 0.0351 ± 0.0063 µM | IC50 [6]: 0.544 ± 0.0772 µM | IC50 ([7]; Table 3a, cells that print nM, read-out: IC50 ± SD in MDA-435 Cells): 6.2 nM | IC50 [8, 25]: 0.0548 ± 0.0092 µM

Nc1nc2[nH]c(CCCOc3ccc(C(=O)N[C@@H](CCC(=O)O)C(=O)O)cc3)cc2c(=O)[nH]1 [AGF215]
IC50 [9, 26]: > 1 µM | IC50 [10, 27]: 0.00154 µM | IC50 [10, 28]: 0.767 µM | IC50 [11]: > 1 µM | IC50 RFC PC43-10 [11]: inactive | IC50 [12, 29]: 0.0038 µM | IC50 [12, 30]: > 1 µM

Cc1nc2c(c(N(C)c3ccc([S+](C)[O-])cc3)n1)CCC2 (centres unmarked) [Section II compound 4]
MS Peak Area in 60 min sample, HPLC area [13]: 2,199,500

Nc1nc2[nH]c(CCCNc3ccc(C(=O)N[C@@H](CCC(=O)O)C(=O)O)cc3)cc2c(=O)[nH]1 [AGF234]
IC50 [9, 31]: 0.0014 µM | IC50 [9, 26]: 0.136 µM | IC50 [10, 27]: 0.00074 µM | IC50 [10, 28]: 0.938 µM | IC50 [11]: 0.67 µM | IC50 RFC PC43-10 [11]: low level of activity | IC50 [12, 29]: 0.00084 µM | IC50 [12, 30]: 0.316 µM

COc1ccc(N(C)c2nc(C)nc3cc[nH]c23)cc1 [1•HCl]
EC50 [1, 32]: 1200 nM | IC50 [3, 33]: 0.25 ± 0.0206 µM | IC50 [4, 34]: 0.215 ± 0.0301 µM | IC50 [7, 35]: 96 ± 5.3 nM | IC50 [8, 36]: 0.0295 ± 0.0031 µM

CSc1ccc(N(C)c2nc(C)nc3c2CCC3)cc1 [Compound 3]
EC50 ([1]; A10, read-out: EC50 in A-10 cells (Concentration that causes 50% tubulin loss in A-10 cells), Table 4, Section II compounds): 12.6 nM | IC50 [14]: 0.00928 ± 0.00042 µM | IC50 [15]: 0.5 ± 0.1 µM | IC50 [16]: 0.00695 ± 0.00053 µM | IC50 [17]: 0.0072 ± 0.0006 µM | IC50 [18]: 0.21 ± 0.01 µM | IC50 [19]: 0.00526 ± 0.00078 µM

Cc1nc2c(c(N(C)c3ccc(S(C)(=O)=O)cc3)n1)CCC2 [Section II compound 5]
MS Peak Area in 60 min sample, HPLC area ([13]; Section II compound 3 incubated with human liver microsomes, 60 min): 98,900 | MS Peak Area in 60 min sample, Percentage (%) ([13]; Section II compound 3 incubated with human liver microsomes, 60 min, parent and metabolites): 2.2%

COc1ccc(N(C)c2nc(C)nc3ccn(C)c23)cc1 [2•HCl]
EC50 ([1]; A10, read-out: EC50 for Microtubule Depolymerization in A · 10 Cells): 7.4 nM | EC50 [1, 32]: 7.4 nM | IC50 [3, 33]: 0.067 ± 0.0102 µM | IC50 [3, 22]: > 0.2 µM | IC50 [4, 34]: 0.0088 ± 0.0009 µM | IC50 [4, 23]: 0.107 ± 0.018 µM | IC50 [7, 35]: 4.3 ± 0.3 nM | IC50 ([7]; read-out: IC50 ± SD in MDA-435 Cells): 4.3 ± 0.3 nM | IC50 [8, 36]: 0.0252 ± 0.00041 µM | IC50 [8, 25]: 0.0893 ± 0.0092 µM | final average tumor mass compared to the vehicle ([20]; Day 15): statistically significant (p<0.001) lower final average tumor mass | mouse weight change ([20]; compared to the vehicle): recoverable weight loss | adverse effects / toxicity in xenograft trial ([20]; 75 mg/kg): noticeable adverse effects on the central nervous system | adverse effects / toxicity in xenograft trial ([20]; listed as AG 141, 75 mg/kg): severe seizures in two mice | adverse effects / toxicity in xenograft trial ([20]; listed as AG141, 75 mg/kg): unacceptable cumulative CNS toxicities | tumor growth during the trial ([20]; nude mice): inhibited tumor growth

Nc1nc(N)c2nc(CNc3ccc(C(=O)N[C@@H](CCCNC(=O)c4ccccc4C(=O)O)C(=O)O)cc3)cnc2n1 [PT523]
IC50 [9, 31]: 0.409 µM | IC50 [9, 26]: > 1 µM | IC50 [11]: 0.00128 µM

CSc1ccc(N(C)c2nc(Cl)nc3ccn(C)c23)cc1 [Table 3a 27]
EC50 [1, 21]: 2.7 nM | GI50 [2]: 0.0452 ± 0.0052 µM | IC50 [3, 22]: 0.0108 ± 0.0016 µM | IC50 [4, 23]: 0.0082 ± 0.0013 µM | IC50 [5]: 0.0113 ± 0.0018 µM | IC50 [6]: 0.0339 ± 0.0039 µM | IC50 [7, 24]: 3.6 ± 0.3 nM | IC50 [8, 25]: 0.0164 ± 0.0026 µM

CC(=O)O[C@H]1C(=O)[C@@]2(C)[C@H]([C@H](OC(=O)c3ccccc3)[C@]3(O)C[C@H](OC(=O)[C@H](O)[C@@H](NC(=O)c4ccccc4)c4ccccc4)C(C)=C1C3(C)C)[C@]1(OC(C)=O)CO[C@@H]1C[C@@H]2O [paclitaxel]
IC50 [15]: 0.01 µM | IC50 [18]: 5 µM

COc1ccc(N(C)c2nc(Cl)nc3ccn(C)c23)cc1 [Table 3a 19]
EC50 [1, 21]: 1.48 nM | GI50 [2]: 0.0093 ± 0.00091 µM | IC50 [3, 22]: 0.0042 ± 0.0009 µM | IC50 [4, 23]: 0.0021 ± 0.0003 µM | IC50 [5]: 0.0031 ± 0.0004 µM | IC50 [6]: 0.0124 ± 0.0012 µM | IC50 [7, 24]: 1.3 nM | IC50 [8, 25]: 0.0063 ± 0.0009 µM
